These compounds were tested on HIV-1 single-round infectious reporter virus (assay: Single-round infectious HIV-1 luciferase reporter virus infection of HeLa CD4 cells (antiviral EC50)). Conditions: Human immunodeficiency virus 1, HeLa, 72 h, read-out: EC50 Group from Table 1.
Format: cell-based
Experimental: • Virus production—Human embryonic Kidney cell line, 293T, was propagated in Dulbecco's Modified Eagle Medium (Invitrogen, Carlsbad, Calif.) containing 10% fetal Bovine serum (FBS, Sigma, St. Louis, Mo.). • Virus infection—Human epithelial cell line, HeLa, expressing the HIV-1 receptor CD4 was propagated in Dulbecco's Modified Eagle Medium (Invitrogen, Carlsbad, Calif.) containing 10% fetal Bovine serum (FBS, Sigma, St. Louis, Mo.) and supplemented with 0.2 mg/mL Geneticin (Invitrogen, Carlsbad, Calif.). Virus-Single-round infectious reporter virus was produced by co-transfecting human embryonic Kidney 293 cells with an HIV-1 envelope DNA expression vector and a proviral cDNA containing an envelope deletion mutation and the luciferase reporter gene inserted in place of HIV-1 nef sequences (Chen et al, Ref. 41). Transfections were performed using lipofectAMINE PLUS reagent as described by the manufacturer (Invitrogen, Carlsbad, Calif.).
• 1. HeLa CD4 cells were plated in 96 well plates at a cell density of 1×10^4 cells per well in 100 μl Dulbecco's Modified Eagle Medium containing 10% fetal Bovine serum and incubated overnight. • 2. Compound was added in a 2 μl dimethylsulfoxide solution, so that the final assay concentration would be ≦10 μM. • 3. 100 μl of single-round infectious reporter virus in Dulbecco's Modified Eagle Medium was then added to the plated cells and compound at an approximate multiplicity of infection (MOI) of 0.01, resulting in a final volume of 200 μl per well. • 4. Virally-infected cells were incubated at 37 degrees Celsius, in a CO2 incubator, and harvested 72 h after infection. • 5. Viral infection was monitored by measuring luciferase expression from viral DNA in the infected cells using a luciferase reporter gene assay kit, as described by the manufacturer (Roche Molecular Biochemicals, Indianapolis, Ind.). Infected cell supernatants were removed and 50 μl of lysis buffer was added per well. After 15 minutes, 50 μl of freshly-reconstituted luciferase assay reagent was added per well. Luciferase activity was then quantified by measuring luminescence using a Wallac microbeta scintillation counter. • 6. The percent inhibition for each compound was calculated by quantifying the level of luciferase expression in cells infected in the presence of each compound as a percentage of that observed for cells infected in the absence of compound and subtracting such a determined value from 100. • 7. An EC50 provides a method for comparing the antiviral potency of the compounds of this invention. The effective concentration for fifty percent inhibition (EC50) was calculated with the Microsoft Excel Xlfit curve fitting software. For each compound, curves were generated from percent inhibition calculated at 10 different concentrations by using a four paramenter logistic model (model 205). Table 1 is the key for the data in Table 2.

| SMILES | EC50 |
| --- | --- |
| N#CC(=C1CCN(C(=O)C(=O)c2c[nH]c3c(-c4ncco4)ccnc23)CC1)c1ccccc1 [Example 103, {1-[2-(7-Oxazol-2-yl-1H-pyrrolo[3,2-b]pyridin-3-yl)-2-oxo-acetyl]-piperidin-4-ylidene}-phenyl-acetonitrile] | < 1000 nM |
| N#CC(=C1CCN(C(=O)C(=O)c2c[nH]c3c(-c4nccs4)ccnc23)CC1)c1ccccc1 [Example 104, {1-[2-Oxo-2-(7-thiazol-2-yl-1H-pyrrolo[3,2-b]pyridin-3-yl)-acetyl]-piperidin-4-ylidene}-phenyl-acetonitrile] | < 1000 nM |
| N#CC(=C1CCN(C(=O)C(=O)c2c[nH]c3c(-n4nccn4)ccnc23)CC1)c1ccccc1 [Example 105, {1-[2-Oxo-2-(7-[1,2,3]triazol-2-yl-1H-pyrrolo[3,2-b]pyridin-3-yl)-acetyl]-piperidin-4-ylidene}-phenyl-acetonitrile] | < 1000 nM |
| N#CC(=C1CCN(C(=O)C(=O)c2c[nH]c3c(-c4cncc(N)n4)ccnc23)CC1)c1ccccc1 [Example 106, (1-{2-[7-(6-Amino-pyrazin-2-yl)-1H-pyrrolo[3,2-b]pyridin-3-yl]-2-oxo-acetyl}-piperidin-4-ylidene)-phenyl-acetonitrile] | < 1000 nM |
| O=C(C(=O)N1CCC(=C(Br)c2ccccc2)CC1)c1c[nH]c2c(Cl)ccnc12 [Example 107, 1-[4-(Bromo-phenyl-methylene)-piperidin-1-yl]-2-(7-chloro-1H-pyrrolo[3,2-b]pyridin-3-yl)-ethane-1,2-dione] | < 1000 nM |
| Cc1nnc(C(=C2CCN(C(=O)C(=O)c3c[nH]c4c(Cl)ccnc34)CC2)c2ccccc2)o1 [Example 108, 1-(7-Chloro-1H-pyrrolo[3,2-b]pyridin-3-yl)-2-{4-[(5-methyl-[1,3,4]oxadiazol-2-yl)-phenyl-methylene]-piperidin-1-yl}-ethane-1,2-dione] | < 1000 nM |
| O=C(C(=O)N1CCC(=C(c2ccccc2)c2cc(F)cc(F)c2)CC1)c1c[nH]c2c(Cl)ccnc12 [Example 109, 1-(7-Chloro-1H-pyrrolo[3,2-b]pyridin-3-yl)-2-{4-[(3,5-difluoro-phenyl)-phenyl-methylene]-piperidin-1-yl}-ethane-1,2-dione] | < 1000 nM |
| N#CC(=C1CCN(C(=O)C(=O)c2c[nH]c3c(-n4cncn4)ncc(F)c23)CC1)c1ccccc1 [Example 110, {1-[2-(4-Fluoro-7-[1,2,4]triazol-1-yl-1H-pyrrolo[2,3-c]pyridin-3-yl)-2-oxo-acetyl]-piperidin-4-ylidene}-phenyl-acetonitrile] | < 1000 nM |
| N#CC(=C1CCN(C(=O)C(=O)c2c[nH]c3c(-n4ccc(N)n4)ncc(F)c23)CC1)c1ccccc1 [Example 111, (1-{2-[7-(3-Amino-pyrazol-1-yl)-4-fluoro-1H-pyrrolo[2,3-c]pyridin-3-yl]-2-oxo-acetyl}-piperidin-4-ylidene)-phenyl-acetonitrile] | < 1000 nM |
| COc1ncc(OC)c2c(C(=O)C(=O)N3CCC(=C(C#C[Si](C)(C)C)c4ccccc4)CC3)c[nH]c12 [Example 112, 1-[4-(1-Phenyl-1-(2-trimethylsilylethyn-1-yl)-methylene)-piperidin-1-yl]-2-(4,7-dimethoxy-6-azaindol-3-yl)-ethane-1,2-dione] | < 1000 nM |
| C#CC(=C1CCN(C(=O)C(=O)c2c[nH]c3c(OC)ncc(OC)c23)CC1)c1ccccc1 [Example 113, 1-[4-(1-Phenyl-1-ethynyl-methylene)-piperidin-1-yl]-2-(4,7-dimethoxy-6-azaindol-3-yl)-ethane-1,2-dione] | < 1000 nM |
| COc1ncc(OC)c2c(C(=O)C(=O)N3CCC(=C(C#CC(C)C)c4ccccc4)CC3)c[nH]c12 [Example 114, 1-[4-(1-Phenyl-1-(2-isopropylethyn-1-yl)-methylene)-piperidin-1-yl]-2-(4,7-dimethoxy-6-azaindol-3-yl)-ethane-1,2-dione] | < 1000 nM |
| COc1ncc(OC)c2c(C(=O)C(=O)N3CCC(=C(C#CC4CC4)c4ccccc4)CC3)c[nH]c12 [Example 115, 1-[4-(1-Phenyl-1-(2-cyclopropylethyn-1-yl)-methylene)-piperidin-1-yl]-2-(4,7-dimethoxy-6-azaindol-3-yl)-ethane-1,2-dione] | < 1000 nM |
| COc1ncc(OC)c2c(C(=O)C(=O)N3CCC(=C(C#CCO)c4ccccc4)CC3)c[nH]c12 [Example 116, 1-[4-(1-Phenyl-1-(2-hydroxymethylethyn-1-yl)-methylene)-piperidin-1-yl]-2-(4,7-dimethoxy-6-azaindol-3-yl)-ethane-1,2-dione] | < 1000 nM |
| COCC#CC(=C1CCN(C(=O)C(=O)c2c[nH]c3c(OC)ncc(OC)c23)CC1)c1ccccc1 [Example 117, 1-[4-(1-Phenyl-1-(2-methoxymethylethyn-1-yl)-methylene)-piperidin-1-yl]-2-(4,7-dimethoxy-6-azaindol-3-yl)-ethane-1,2-dione] | < 1000 nM |
| COc1ncc(OC)c2c(C(=O)C(=O)N3CCC(=C(C#Cc4ccccc4)c4ccccc4)CC3)c[nH]c12 [Example 118, 1-[4-(1-Phenyl-1-(2-phenylethyn-1-yl)-methylene)-piperidin-1-yl]-2-(4,7-dimethoxy-6-azaindol-3-yl)-ethane-1,2-dione] | < 1000 nM |
| COc1ncc(OC)c2c(C(=O)C(=O)N3CCC(=C(C#CC(=O)O)c4ccccc4)CC3)c[nH]c12 [Example 119, 1-[4-(1-Phenyl-1-(2-carboxyethyn-1-yl)-methylene)-piperidin-1-yl]-2-(4,7-dimethoxy-6-azaindol-3-yl)-ethane-1,2-dione] | < 1000 nM |
| COc1cnc(-n2cnc(C)n2)c2[nH]cc(C(=O)C(=O)N3CCC(=C(c4ccccc4)c4cncc(CO)c4)CC3)c12 [Example 120, 1-[4-(1-Phenyl-1-(5-hydroxymethylpyridin-3-yl)-methylene)-piperidin-1-yl]-2-[4-methoxy-7-(3-methyl-1,2,4-triazol-1-yl)-6-azaindol-3-yl]-ethane-1,2-dione] | < 1000 nM |
| CCOC(=O)c1cncc(C(=C2CCN(C(=O)C(=O)c3c[nH]c4c(-n5cnc(C)n5)ncc(OC)c34)CC2)c2ccccc2)c1 [Example 121] | < 1000 nM |
| COc1ncc(OC)c2c(C(=O)C(=O)N3CCC(=C(C#N)c4nnc(-c5ccccc5)o4)CC3)c[nH]c12 [Example 122, 1-[4-(1-Cyano-1-(5-phenyl-1,3,4-oxadiazol-2-yl)-methylene)-piperidin-1-yl]-2-(4,7-dimethoxy-6-azaindol-3-yl)-ethane-1,2-dione] | > 5000 nM |
| COc1ncc(OC)c2c(C(=O)C(=O)N3CCC(=C(C#N)c4nc5ccccc5s4)CC3)c[nH]c12 [Example 123, 1-[4-(1-Cyano-1-benzothiazol-2-yl-methylene)-piperidin-1-yl]-2-(4,7-dimethoxy-6-azaindol-3-yl)-ethane-1,2-dione] | > 5000 nM |
| COc1ncc(OC)c2c(C(=O)C(=O)N3CCC(=C(C#N)c4cncs4)CC3)c[nH]c12 [Example 124, 1-[4-(1-Cyano-1-thiazol-5-yl-methylene)-piperidin-1-yl]-2-(4,7-dimethoxy-6-azaindol-3-yl)-ethane-1,2-dione] | < 1000 nM |
| COc1ncc(OC)c2c(C(=O)C(=O)N3CCC(=C(C#N)c4c(C)sc(C)c4C)CC3)c[nH]c12 [Example 125, 1-[4-(1-Cyano-1-(2,3,5-trimethylthien-4-yl)-methylene)-piperidin-1-yl]-2-(4,7-dimethoxy-6-azaindol-3-yl)-ethane-1,2-dione] | > 5000 nM |
| COc1ncc(OC)c2c(C(=O)C(=O)N3CCC(=C(C#N)c4ccsc4)CC3)c[nH]c12 [Example 126, 1-[4-(1-Cyano-1-thien-3-yl-methylene)-piperidin-1-yl]-2-(4,7-dimethoxy-6-azaindol-3-yl)-ethane-1,2-dione] | < 1000 nM |
| COc1ncc(OC)c2c(C(=O)C(=O)N3CCC(=C(C#N)c4coc5ccccc45)CC3)c[nH]c12 [Example 127, 1-[4-(1-Cyano-1-benzofuran-3-yl-methylene)-piperidin-1-yl]-2-(4,7-dimethoxy-6-azaindol-3-yl)-ethane-1,2-dione] | < 1000 nM |
| COc1ncc(OC)c2c(C(=O)C(=O)N3CCC(=C(C#N)c4csc5ccccc45)CC3)c[nH]c12 [Example 128, 1-[4-(1-Cyano-1-benzothien-3-yl-methylene)-piperidin-1-yl]-2-(4,7-dimethoxy-6-azaindol-3-yl)-ethane-1,2-dione] | < 1000 nM |

From patent publication US20080188481A1 (priority 2002, published 2008)
